From PubChem BioAssay AID179 (DTP/NCI, 2004)
The source made the active and inactive calls.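 The calls were made as follows: active = compounds giving half or more protection of infected cells from virus-caused growth loss, again on retest; inactive = the rest.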

System: CEM cells HIV-1 protection, formazan growth assay
Test: NCI AIDS Antiviral Assay
Settings: for IC50: measured here: growth of uninfected CEM cells
How it was run: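 CEM (human) cells, HIV-1 infected vs uninfected, 5-point dosing, formazan growth read-out. Retest threshold 50% protection.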

Compound | EC50 | IC50 | outcome
Cc1cc(C)nc(NS(=O)(=O)c2ccc(NC(=O)c3cccc4c(Nc5ccc(S(=O)(=O)Nc6nc(C)cc(C)n6)cc5)c5ccccc5nc34)cc2)n1 | > 33.9 µM | 30.2 µM | –
CCCc1cc(=O)oc2c3c(cc(OC(C)C)c12)O[C@H](C)[C@@H](C)[C@H]3O | > 200 µM | 12 µM | –
CC(=O)Nc1ncc(Sc2ccccc2C(=O)O)s1 | > 200 µM | > 200 µM | –
C#Cc1cccc(N2C(=O)CC(=P(c3ccccc3)(c3ccccc3)c3ccccc3)C2=O)c1 | > 11.2 µM | > 11.2 µM | –
O=C(N=Nc1ccccc1Br)NNc1ccccc1Br | > 200 µM | > 100 µM | –
ClC1=C(Cl)C(Cl)(Cl)c2c3c(c4c(c21)C(Cl)(Cl)C(Cl)=C4Cl)C(Cl)(Cl)C(Cl)=C3Cl | > 8.71 µM | > 8.71 µM | –
N=c1oc2ccc([N+](=O)[O-])cc2cc1C(=O)NCc1ccccc1 | > 200 µM | 14.1 µM | –
CC1(C)OC(=O)C=C[C@@]2(C)C1CC(=O)C1(C)C2CCC2(C)C(c3ccoc3)OC(=O)[C@H]3O[C@]321 (some centres not stated) | > 200 µM | > 200 µM | –
C=CCCCCOC1C=CC(OC(C)=O)C(COC(C)=O)O1 (configuration not stated) | > 200 µM | > 200 µM | –
N#CC(C#N)=C1C(=O)NC(N)=C1C#N | > 200 µM | > 200 µM | –
CN(C)C(=O)COc1ccc(Cl)cc1Cl | > 200 µM | > 200 µM | –
CCOC(=O)C1C(c2ccco2)C2(C#N)C(=N)OC1(C)C2(C#N)C#N (configuration not stated) | > 200 µM | 64.6 µM | –
O=S(Cc1ccccc1)/C(=C/n1c(=S)[nH]c2ccccc21)c1ccccc1 (configuration not stated) | > 200 µM | > 200 µM | –
CCOc1cc2c(=O)oc3c(OC)ccc4ccc(c1OC)c2c43 | – | – | inactive
COC(=O)C1=C(C)N2CCCOC2(C)C(C(=O)OC)C1c1cccc(Cl)c1 (configuration not stated) | > 200 µM | 112 µM | –
COc1ccc2c(c1)C(=O)[C@@](Nc1ccc(C=O)cc1)(OC)[C@@](OC)(c1ccc([N+](=O)[O-])cc1)O2 | > 200 µM | 85.1 µM | –
CC1OC(=O)C(O)=C1O (configuration not stated) | – | – | inactive
COc1ccc2c(c1)C(=O)N1CSCC1C(=O)S2 (configuration not stated) | > 200 µM | > 200 µM | –
COc1ccc2c(c1OC)[C@]13CCCC[C@@H]1[C@H](C2)N(C)CC3 | – | – | inactive
CCCC1(N)CC(OC)OC(C)C1O (configuration not stated) | > 200 µM | > 200 µM | –
NNC(=O)/C(NC(=O)c1ccccc1)=C(\N)c1cccc([N+](=O)[O-])c1 | > 15.1 µM | > 15.1 µM | –
COC(=O)N/N=C/c1oc(-c2ccccc2)c(-c2ccccc2)c1[N+](=O)[O-] | > 61.7 µM | > 61.7 µM | –

Compound | EC50 | IC50 | outcome
Cn1c(=O)c2[nH]c(N=Nc3c(N)n[nH]c3N)nc2n(C)c1=O | > 200 µM | > 200 µM | –
c1ccc2c3nnc(c2c1)SCCCSc1nnc(c2ccccc12)SCCCS3 | > 200 µM | > 200 µM | –
CCc1cc(CCC(=O)Nc2c(C)cccc2C)[nH]n1 | > 912 µM | > 912 µM | –
CCCCCCCCCCCC1CN=C(CCCCC2=NCC(CCCCCCCCCCC)N2)N1 (configuration not stated) | > 7.08 µM | > 7.08 µM | –
Cc1cn(C2OC(CO)CC2F)c(=O)[nH]c1=O (configuration not stated) | > 646 µM | > 646 µM | –
C=C(C)CCC[C@@H](C)C1CCC2(C)[C@@H]3CCC4C(C)(C)[C@@H](O)CC[C@@]45C[C@@]35CC[C@]12C (some centres not stated) | > 200 µM | 46.8 µM | –
CCCCNC(=O)/C(=C/c1ccc2c(c1)OCO2)NC(=O)c1ccccc1 | > 200 µM | > 200 µM | –
O=c1cc(NNc2cccc(F)c2)[nH]c(=O)[nH]1 | > 200 µM | 1.1 µM | –
O=C(O)CNC(=O)c1ccccc1SC(=O)CCCC[n+]1ccccc1 | > 200 µM | > 200 µM | –
[Pt].c1ccc(P(CCP(CCP(c2ccccc2)c2ccccc2)CCP(c2ccccc2)c2ccccc2)c2ccccc2)cc1 | > 5.62 µM | 2.95 µM | –
COc1ccc(N=C2[Se]C(=NC(=O)c3ccccc3)N(c3ccc(OC)cc3)C2=Nc2ccc(OC)cc2)cc1 | > 200 µM | 102 µM | –
Nc1scc2[nH]c3ccccc3[n+]12 | > 200 µM | 15.5 µM | –
CC1CC(O)c2ccccc2O1 (configuration not stated) | > 200 µM | > 200 µM | –
O=C(CC1(O)C(=O)Nc2ccc([N+](=O)[O-])cc21)c1ccc2ccccc2c1 (configuration not stated) | > 100 µM | > 100 µM | –
CC1(C)O[C@]2(C)CC[C@@H]1[C@@H](O)[C@@H]2N1CCCCC1 | > 380 µM | > 380 µM | –
O=c1[nH]c(=O)n(C2CC(O)C(CO)O2)c2nc3cc4ccccc4cc3nc12 (configuration not stated) | > 200 µM | > 200 µM | –
C[P@](=O)(CCSc1ccccc1)c1ccccc1 | > 468 µM | > 468 µM | –
O/N=C(\c1ccccc1)N1CCCCC1 | – | – | inactive
COc1ccc(CCN2CCC(C#N)(c3ccc(OC)c(OC)c3)CC2)cc1OC | > 57.5 µM | > 57.5 µM | –
Cc1cc(Cl)ccc1NC(=O)CC/C(CC(=O)C(C)C)=N\NC(=O)C[n+]1ccccc1 | > 16.2 µM | > 16.2 µM | –
CCOC(=O)C1([Se]c2ccccc2)CCCC1=O (configuration not stated) | > 219 µM | 20.4 µM | –
